Publication PMC9217978, “Design, synthesis, in vitro α-glucosidase inhibition, docking, and molecular dynamics of new phthalimide-benzenesulfonamide hybrids for targeting type 2 diabetes” (Scientific Reports, 2022)
Where two headings read alike, the source gives them in different places.

Columns and labels:
[1] = target: α-glucosidase; conditions: read-out: IC50 against α-glucosidase, cited from earlier work
[2] = target: yeast α-glucosidase (Saccharomyces cerevisiae, UniProt P53341); assay: biochemical; format: biochemical; conditions: for α-glucosidase inhibitory activity, in words: SAR discussion; for IC50: read-out: IC50 (μM), in vitro α-glucosidase inhibitory activity
Chain of yeast α-glucosidase (P53341 whole entry): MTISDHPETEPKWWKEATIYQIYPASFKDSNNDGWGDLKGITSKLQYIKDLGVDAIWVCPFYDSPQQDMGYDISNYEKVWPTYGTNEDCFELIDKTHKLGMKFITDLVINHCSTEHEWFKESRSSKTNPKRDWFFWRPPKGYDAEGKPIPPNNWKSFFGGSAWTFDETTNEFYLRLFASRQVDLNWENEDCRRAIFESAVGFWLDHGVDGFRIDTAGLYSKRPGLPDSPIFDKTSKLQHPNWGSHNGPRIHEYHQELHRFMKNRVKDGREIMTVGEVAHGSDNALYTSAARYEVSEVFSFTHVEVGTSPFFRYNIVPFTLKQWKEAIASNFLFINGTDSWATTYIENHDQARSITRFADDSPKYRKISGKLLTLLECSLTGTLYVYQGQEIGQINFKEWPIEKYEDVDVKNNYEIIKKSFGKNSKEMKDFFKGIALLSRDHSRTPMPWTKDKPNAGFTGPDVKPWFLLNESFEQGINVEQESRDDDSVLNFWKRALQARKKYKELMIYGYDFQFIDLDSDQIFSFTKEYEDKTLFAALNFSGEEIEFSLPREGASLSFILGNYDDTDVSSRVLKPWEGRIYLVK
From the text: On the other hand, there are phenyl, 4-methylphenyl, and or 4-methoxyphenyl groups in the benzenesulfonamide moiety.

[3] = target: T1, α-amylase (Homo sapiens, UniProt P04746); assay: In vitro α-amylase inhibition assay; format: biochemical; conditions: at 300 μM
T1 sequence (P04746 16-511): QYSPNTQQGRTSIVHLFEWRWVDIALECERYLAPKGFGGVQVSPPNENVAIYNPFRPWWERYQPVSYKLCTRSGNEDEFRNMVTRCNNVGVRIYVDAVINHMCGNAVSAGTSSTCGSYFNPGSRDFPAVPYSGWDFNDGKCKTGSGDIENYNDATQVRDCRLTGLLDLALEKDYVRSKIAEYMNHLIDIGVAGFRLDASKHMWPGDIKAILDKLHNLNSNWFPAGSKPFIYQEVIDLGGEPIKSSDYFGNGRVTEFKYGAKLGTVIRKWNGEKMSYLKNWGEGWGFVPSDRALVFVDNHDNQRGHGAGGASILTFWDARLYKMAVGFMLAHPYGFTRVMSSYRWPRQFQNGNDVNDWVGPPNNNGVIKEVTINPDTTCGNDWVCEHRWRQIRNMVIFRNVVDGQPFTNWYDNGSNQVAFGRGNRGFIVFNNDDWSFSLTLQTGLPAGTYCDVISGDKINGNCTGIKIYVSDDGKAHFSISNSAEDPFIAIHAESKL

Row | Compound | melting point [°C] | α-glucosidase inhibitory activity, in words [2] | IC50 [2] [µM] | further results
1 | O=C1c2ccccc2C(=O)N1CCCOc1ccc(Cl)c(Cl)c1 [A] |  |  |  | IC50 ([1]; Fig. 2, phthalimide derivative A study): 7.55 µM
2 | Cc1ccc(S(=O)(=O)Nc2ccc3c(c2)C(=O)N(CCOc2ccc(O)cc2)C3=O)cc1 [B] |  |  |  | IC50 ([1]; Fig. 2, phthalimide-benzenesulfonamid B study): 25.5 µM
3 | O=C1c2ccccc2C(=O)N1CCC(=NS(=O)(=O)c1ccccc1)N1CCCCC1 [Compound 4a, N-(3-(1,3-Dioxoisoindolin-2-yl)-1-(piperidin-1-yl)propylidene)benzenesulfonamide] | 158 to 160 | inactive |  | 
4 | Cc1ccc(S(=O)(=O)N=C(CCN2C(=O)c3ccccc3C2=O)N2CCCCC2)cc1 [Compound 4b, N-(3-(1,3-Dioxoisoindolin-2-yl)-1-(piperidin-1-yl)propylidene)-4-methylbenzenesulfonamide] | 198 to 200 | high inhibitory activity | 127.24 ± 0.1 | 
5 | COc1ccc(S(=O)(=O)N=C(CCN2C(=O)c3ccccc3C2=O)N2CCCCC2)cc1 [Compound 4c, N-(3-(1,3-dioxoisoindolin-2-yl)-1-(piperidin-1-yl)propylidene)-4-methoxybenzenesulfonamide] | 146 to 148 | good anti-α-glucosidase activity | 200.29 ± 0.1 | 
6 | O=C1c2ccccc2C(=O)N1CCC(=NS(=O)(=O)c1ccccc1)N1CCOCC1 [Compound 4d, N-(3-(1,3-dioxoisoindolin-2-yl)-1-morpholinopropylidene)benzenesulfonamide] | 168 to 170 | inactive |  | 
7 | Cc1ccc(S(=O)(=O)N=C(CCN2C(=O)c3ccccc3C2=O)N2CCOCC2)cc1 [Compound 4e, N-(3-(1,3-Dioxoisoindolin-2-yl)-1-morpholinopropylidene)-4-methylbenzenesulfonamide] | 204 to 206 | high inhibitory activity | 117 ± 0.14 | inhibition effect against α-amylase [3]: no inhibition effect
8 | COc1ccc(S(=O)(=O)N=C(CCN2C(=O)c3ccccc3C2=O)N2CCOCC2)cc1 [Compound 4f, N-(3-(1,3-Dioxoisoindolin-2-yl)-1-morpholinopropylidene)-4-methoxybenzenesulfonamide] | 172 to 174 |  |  | 
9 | O=C1c2ccccc2C(=O)N1CCC(=NS(=O)(=O)c1ccccc1)N(c1ccccc1)c1ccccc1 [Compound 4g, 3-(1,3-Dioxoisoindolin-2-yl)-N,N-diphenyl-N'-(phenylsulfonyl)propanimidamide] | 202 to 204 | moderate inhibitory activity | 478 ± 0.07 | 
10 | Cc1ccc(S(=O)(=O)N=C(CCN2C(=O)c3ccccc3C2=O)N(c2ccccc2)c2ccccc2)cc1 [Compound 4h, 3-(1–3-Dioxoisoindolin-2-yl)-N,N-diphenyl-N’-tosylpropanimidamide] | 202 to 204 | moderate α-glucosidase inhibitors | 497 ± 0.25 | 
11 | O=C1c2ccccc2C(=O)N1CCC(=NS(=O)(=O)c1ccccc1)N1CCC(Cc2ccccc2)CC1 [Compound 4i, N-(1-(4-benzylpiperidin-1-yl)-3-(1,3-dioxoisoindolin-2-yl)propylidene)benzenesulfonamide] |  | high inhibitory activity | 84.3 ± 0.4 | 
12 | COc1ccc(S(=O)(=O)N=C(CCN2C(=O)c3ccccc3C2=O)N2CCC(Cc3ccccc3)CC2)cc1 [Compound 4k] |  | inactive |  | 
13 | O=C1c2ccccc2C(=O)N1CCC(=NS(=O)(=O)c1ccccc1)N1CCN(c2ccccc2)CC1 [Compound 4l, N-(3-(1,3-dioxoisoindolin-2-yl)-1-(4-phenylpiperazin-1-yl)propylidene)benzenesulfonamide] | 160 to 164 |  |  | 
14 | NS(=O)(=O)c1ccc(N/N=C/c2coc3ccccc3c2=O)cc1 [D] |  |  |  | IC50 ([1]; Fig. 2, chromone-benzenesulfonamid D study): 20.1 µM
15 | O=C(N/N=C/c1ccc(OCCCN2C(=O)c3ccccc3C2=O)cc1)c1cc2ccccc2oc1=O [E] |  |  |  | IC50 ([1]; Fig. 2, phthalimide-coumarin E study): 85.2 µM
